{
  "source": "patent US20020137929A1",
  "about": "“1 - (3-heterocyclylphenyl) isothiourea, -isourea, -guanidine and -amidine herbicidal agents” (Intellectual Property Department, BASF Aktiengesellschaft, priority 1998, published 2002)",
  "key": {"AMBEL (Ragweed, Common)": {"tested_on": "AMBEL (Ragweed, Common)", "experiment": "Preemergence herbicidal evaluation", "type": "in vivo, Ambrosia artemisifolia", "conditions": "preemergence, rated 4-5 weeks after treatment, 0-9 scale", "how_it_was_run": "(§1)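 Seeds were planted in potting soil in cups, then sprayed preemergence with the test compound in aqueous acetone at about 0.0156 to 0.500 kg per hectare. Cups were kept under greenhouse conditions and visually rated 4–5 weeks after treatment on a 0–9 scale against an untreated control.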"}, "CYPSE (Flatsedge) [1]": {"tested_on": "CYPSE (Flatsedge)", "experiment": "Postemergence weed control under flooded paddy conditions", "type": "in vivo, Cyperus serotinus", "conditions": "postemergence weeds, rated 3 to 4 weeks after treatment", "how_it_was_run": "(§2)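 Containers holding 3–5 cm weeds and rice at 1.5–2.5 leaves are flooded to 1.5–3 cm above soil. Compound in 50/50 v/v aqueous/acetone is then added directly to the water, about 0.0313–0.500 kg/ha. Plants are kept in the greenhouse and rated 0–9 visually at 3–4 weeks.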"}, "CYPIR (Rice Flatsedge)": {"tested_on": "CYPIR (Rice Flatsedge)", "experiment": "Postemergence weed control under flooded paddy conditions", "type": "in vivo, Cyperus iria", "conditions": "postemergence weeds, rated 3 to 4 weeks after treatment", "how_it_was_run": "as §2"}, "SETVI (Foxtail, Green)": {"tested_on": "SETVI (Foxtail, Green)", "experiment": "Preemergence herbicidal evaluation", "type": "in vivo, Setaria viridis", "conditions": "preemergence, rated 4-5 weeks after treatment, 0-9 scale", "how_it_was_run": "as §1"}, "[2]": {"tested_on": "SAGPY (Arrowhead (Pygmaea))", "experiment": "Postemergence weed control under flooded paddy conditions", "type": "in vivo, Sagittaria pygmaea", "conditions": "postemergence weeds, rated 3 to 4 weeks after treatment", "how_it_was_run": "as §2"}, "MOOVA (Monochoria)": {"tested_on": "MOOVA (Monochoria)", "experiment": "Preemergence weed control under flooded paddy conditions", "type": "in vivo, Monochoria vaginalis", "conditions": "rated 3-4 weeks after treatment", "how_it_was_run": "(§3)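 Values are visual 0-9 scores against a control for a preemergence application into paddy flood water at about 0.0313 to 0.500 kg/ha. Greenhouse duration was three to four weeks.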"}, "ZEAMX (Corn, Field)": {"tested_on": "ZEAMX (Corn, Field)", "experiment": "Postemergence herbicidal evaluation", "type": "in vivo, Zea mays", "conditions": "postemergence", "how_it_was_run": "(§4)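 Young plants, roughly two weeks from seeding, receive the active ingredient as a sprayed dispersion (acetone/water 50/50, 0.5% TWEEN 20) at 40 psi. Doses span about 0.0156 to 0.500 kg/ha. A visual score from 0 to 9 compares treated with control plants four to five weeks on.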"}, "ORYSAT (Rice, Tebonnet) [3]": {"tested_on": "ORYSAT (Rice, Tebonnet)", "experiment": "Postemergence herbicidal evaluation", "type": "in vivo, Oryza sativa, (L.) Tebonnet", "conditions": "postemergence", "how_it_was_run": "as §4"}, "[4]": {"tested_on": "CHEAL (Lambsquarters, Common)", "experiment": "Postemergence herbicidal evaluation", "type": "in vivo, Chenopodium album", "conditions": "postemergence", "how_it_was_run": "as §4"}, "CASOB (Sicklepod)": {"tested_on": "CASOB (Sicklepod)", "experiment": "Postemergence herbicidal evaluation", "type": "in vivo, Cassia obtusifolia", "conditions": "postemergence", "how_it_was_run": "as §4"}, "CYPSE (Flatsedge) [5]": {"tested_on": "CYPSE (Flatsedge)", "experiment": "Preemergence weed control under flooded paddy conditions", "type": "in vivo, Cyperus serotinus", "conditions": "rated 3-4 weeks after treatment", "how_it_was_run": "as §3"}, "[6]": {"tested_on": "GLXMAW (Soybean, Williams)", "experiment": "Preemergence herbicidal evaluation", "type": "in vivo, Glycine max, (L.) Merr. cv Williams", "conditions": "preemergence, rated 4-5 weeks after treatment, 0-9 scale", "how_it_was_run": "as §1"}, "GALAP (Galium)": {"tested_on": "GALAP (Galium)", "experiment": "Postemergence herbicidal evaluation", "type": "in vivo, Galium aparine", "conditions": "postemergence", "how_it_was_run": "as §4"}, "ORYSAT (Rice, Tebonnet) [7]": {"tested_on": "ORYSAT (Rice, Tebonnet)", "experiment": "Preemergence herbicidal evaluation", "type": "in vivo, Oryza sativa, (L.) Tebonnet", "conditions": "preemergence, rated 4-5 weeks after treatment, 0-9 scale", "how_it_was_run": "as §1"}},
  "data": [
    {"smiles": "CN1C(=O)C(CC(N)=O)SC1=Nc1cc(-n2c(=O)cc(C(F)(F)F)n(C)c2=O)c(F)cc1Cl", "note": "(stereo not shown) [Compound 92, 2-{{2-Chloro-5-[3,6-dihydro-3-methyl-2,6-dioxo-4-(trifluoromethyl)-1(2H)-pyrimidinyl]-4-fluorophenyl}imino}-3-methyl-4-oxo-5-thiazolidineacetamide]", "values": [
      {"measurement": "AMBEL rating", "setting": "AMBEL (Ragweed, Common); 0.0156 kg/ha", "value": 0.0},
      {"measurement": "AMBEL rating", "setting": "AMBEL (Ragweed, Common); 0.0313 kg/ha", "value": 0.0},
      {"measurement": "AMBEL rating", "setting": "AMBEL (Ragweed, Common); 0.0625 kg/ha", "value": 0.0},
      {"measurement": "AMBEL rating", "setting": "AMBEL (Ragweed, Common); 0.1250 kg/ha", "value": 5.0},
      {"measurement": "AMBEL rating", "setting": "AMBEL (Ragweed, Common); 0.2500 kg/ha", "value": 9.0},
      {"measurement": "Herbicidal rating CYPSE", "setting": "CYPSE (Flatsedge) [1]; Rate 0.0313 kg/ha", "value": 9.0},
      {"measurement": "Herbicidal rating CYPSE", "setting": "CYPSE (Flatsedge) [1]; Rate 0.0625 kg/ha", "value": 9.0},
      {"measurement": "Herbicidal rating CYPSE", "setting": "CYPSE (Flatsedge) [1]; Rate 0.1250 kg/ha", "value": 9.0},
      {"measurement": "Herbicidal rating CYPSE", "setting": "CYPSE (Flatsedge) [1]; Rate 0.2500 kg/ha", "value": 9.0},
      {"measurement": "Herbicidal rating CYPIR", "setting": "CYPIR (Rice Flatsedge); Rate 0.0313 kg/ha", "value": 3.0},
      {"measurement": "Herbicidal rating CYPIR", "setting": "CYPIR (Rice Flatsedge); Rate 0.0625 kg/ha", "value": 3.0},
      {"measurement": "Herbicidal rating CYPIR", "setting": "CYPIR (Rice Flatsedge); Rate 0.1250 kg/ha", "value": 5.0},
      {"measurement": "Herbicidal rating CYPIR", "setting": "CYPIR (Rice Flatsedge); Rate 0.2500 kg/ha", "value": 7.0},
      {"measurement": "SETVI rating", "setting": "SETVI (Foxtail, Green); 0.0156 kg/ha", "value": 0.0},
      {"measurement": "SETVI rating", "setting": "SETVI (Foxtail, Green); 0.0313 kg/ha", "value": 0.0},
      {"measurement": "SETVI rating", "setting": "SETVI (Foxtail, Green); 0.0625 kg/ha", "value": 0.0},
      {"measurement": "SETVI rating", "setting": "SETVI (Foxtail, Green); 0.1250 kg/ha", "value": 0.0},
      {"measurement": "SETVI rating", "setting": "SETVI (Foxtail, Green); 0.2500 kg/ha", "value": 9.0},
      {"measurement": "Herbicidal rating SAGPY", "setting": "[2]; Rate 0.0313 kg/ha", "value": 0.0},
      {"measurement": "Herbicidal rating SAGPY", "setting": "[2]; Rate 0.0625 kg/ha", "value": 0.0},
      {"measurement": "Herbicidal rating SAGPY", "setting": "[2]; Rate 0.1250 kg/ha", "value": 4.0},
      {"measurement": "Herbicidal rating SAGPY", "setting": "[2]; Rate 0.2500 kg/ha", "value": 9.0},
      {"measurement": "MOOVA herbicidal effect rating", "setting": "MOOVA (Monochoria); 0.0313 kg/ha", "value": 9.0},
      {"measurement": "MOOVA herbicidal effect rating", "setting": "MOOVA (Monochoria); 0.0625 kg/ha", "value": 9.0},
      {"measurement": "MOOVA herbicidal effect rating", "setting": "MOOVA (Monochoria); 0.1250 kg/ha", "value": 9.0},
      {"measurement": "MOOVA herbicidal effect rating", "setting": "MOOVA (Monochoria); 0.2500 kg/ha", "value": 9.0},
      {"measurement": "ZEAMX herbicidal rating", "setting": "ZEAMX (Corn, Field); rate 0.0158 kg/ha", "value": 6.0},
      {"measurement": "ZEAMX herbicidal rating", "setting": "ZEAMX (Corn, Field); rate 0.0315 kg/ha", "value": 7.5},
      {"measurement": "ZEAMX herbicidal rating", "setting": "ZEAMX (Corn, Field); rate 0.0630 kg/ha", "value": 8.0},
      {"measurement": "ORYSAT herbicidal rating", "setting": "ORYSAT (Rice, Tebonnet) [3]; rate 0.0158 kg/ha", "value": 1.5},
      {"measurement": "ORYSAT herbicidal rating", "setting": "ORYSAT (Rice, Tebonnet) [3]; rate 0.0315 kg/ha", "value": 2.0},
      {"measurement": "ORYSAT herbicidal rating", "setting": "ORYSAT (Rice, Tebonnet) [3]; rate 0.0630 kg/ha", "value": 3.5},
      {"measurement": "CHEAL herbicidal rating", "setting": "[4]; rate 0.0158 kg/ha", "value": 2.0},
      {"measurement": "CHEAL herbicidal rating", "setting": "[4]; rate 0.0315 kg/ha", "value": 9.0},
      {"measurement": "CHEAL herbicidal rating", "setting": "[4]; rate 0.0630 kg/ha", "value": 9.0},
      {"measurement": "CASOB herbicidal rating", "setting": "CASOB (Sicklepod); rate 0.0158 kg/ha", "value": 3.0},
      {"measurement": "CASOB herbicidal rating", "setting": "CASOB (Sicklepod); rate 0.0315 kg/ha", "value": 5.0},
      {"measurement": "CASOB herbicidal rating", "setting": "CASOB (Sicklepod); rate 0.0630 kg/ha", "value": 9.0},
      {"measurement": "CYPSE herbicidal effect rating", "setting": "CYPSE (Flatsedge) [5]; 0.0313 kg/ha", "value": 9.0},
      {"measurement": "CYPSE herbicidal effect rating", "setting": "CYPSE (Flatsedge) [5]; 0.0625 kg/ha", "value": 9.0},
      {"measurement": "CYPSE herbicidal effect rating", "setting": "CYPSE (Flatsedge) [5]; 0.1250 kg/ha", "value": 9.0},
      {"measurement": "CYPSE herbicidal effect rating", "setting": "CYPSE (Flatsedge) [5]; 0.2500 kg/ha", "value": 9.0},
      {"measurement": "GLXMAW rating", "setting": "[6]; 0.0156 kg/ha", "value": 0.0},
      {"measurement": "GLXMAW rating", "setting": "[6]; 0.0313 kg/ha", "value": 0.0},
      {"measurement": "GLXMAW rating", "setting": "[6]; 0.0625 kg/ha", "value": 0.0},
      {"measurement": "GLXMAW rating", "setting": "[6]; 0.1250 kg/ha", "value": 1.0},
      {"measurement": "GLXMAW rating", "setting": "[6]; 0.2500 kg/ha", "value": 5.0},
      {"measurement": "GALAP herbicidal rating", "setting": "GALAP (Galium); rate 0.0158 kg/ha", "value": 0.0},
      {"measurement": "GALAP herbicidal rating", "setting": "GALAP (Galium); rate 0.0315 kg/ha", "value": 3.0},
      {"measurement": "GALAP herbicidal rating", "setting": "GALAP (Galium); rate 0.0630 kg/ha", "value": 4.0},
      {"measurement": "ORYSAT rating", "setting": "ORYSAT (Rice, Tebonnet) [7]; 0.0156 kg/ha", "value": 0.0},
      {"measurement": "ORYSAT rating", "setting": "ORYSAT (Rice, Tebonnet) [7]; 0.0313 kg/ha", "value": 0.0},
      {"measurement": "ORYSAT rating", "setting": "ORYSAT (Rice, Tebonnet) [7]; 0.0625 kg/ha", "value": 0.0},
      {"measurement": "ORYSAT rating", "setting": "ORYSAT (Rice, Tebonnet) [7]; 0.1250 kg/ha", "value": 0.0},
      {"measurement": "ORYSAT rating", "setting": "ORYSAT (Rice, Tebonnet) [7]; 0.2500 kg/ha", "value": 5.0}
    ]}
  ]
}
